Patent US20070010459A1, “Application of asiatic acid and its derivatives to treat pulmonary fibrosis” (priority 2005, published 2007)

How the values were obtained:
Beagle dogs [1] = experiment: Acute toxicity study in Beagle dogs; assay type: in vivo; conditions: single administration
Text: Therefore the highest dosage was given to the animal. […] Food uptake and activity were normal in the observation period.

[2] = tested on: rats with pulmonary fibrosis induced by bleomycin; experiment: Pharmacodynamics of asiaticoside in rats with pulmonary fibrosis induced by bleomycin; assay type: in vivo
Description: The rats with lung fibrosis were induced by bleomycin through trachea administration and then treated with asiaticoside. […] The study regimen lasted for 28 days. The lung weight coefficient and hydroyproline (HXP) content were measured on day 2 and 8 after the formation of animal model. CT scan, pathology and serum ECM content measurements were conducted on day 14, 21 and 28 days respectively.

[3] = tested on: primary culture of mice fibroblast; experiment: bFGF-stimulated proliferation of primary fibroblast culture; assay type: cell-based; conditions: bFGF 0.5 g/ml; tested at 25, 12.5, 6.25, 3.125 or 1.56 μg
Description: Using bFGF (0.5 µg/ml), the proliferation of primary culture of mice fibroblast with the presence of asiaticoside or asiatic acid at 25, 12.5, 6.25, 3.125 or 1.56 μg respectively was assessed.

[4] = tested on: radiation pneumonia and subsequent pulmonary fibrosis induced by Cobalt-60 radiation; experiment: Pharmacodynamics of asiaticoside in radiation pneumonia induced by Cobalt-60 radiation; assay type: in vivo, rats; parameters: Type IV (collagen content comparison, serum ECM) / Laminin (serum ECM) / Hyaluronic Acid (serum ECM): unit not given here
Description: Radiation pneumonia and subsequent pulmonary fibrosis in rats was induced by Cobalt-60 radiation. The efficacies were assessed by the lung weight coefficient, HXP content, serum ECM measurement, CT scan and pathological examinations.

[5] = Pharmacokinetics, tissue distribution and excretion of asiaticoside; assay type: in vivo, rats; conditions: rats, asiaticoside gavage, highest dose (100 mg/kg)
Description: Three doses of asiaticoside (10, 33, 100 mg/kg) were gavaged to rats (n=6) and canines (n=4). After dosing, blood was sampled up to 120 or 216 hours in rats and canines respectively. Tissue distribution and excretion studies in rats were carried out with the highest dose.
The respective asiaticoside and asiatic acid in the same bio-matrix were detected by LC/MS/MS and GC/MS. Because the secondary peak resembled a plasma concentration-time profile in both rat and canine rather than conventional compartment fitting, statistical moment analysis was used in calculating pharmacokinetic parameters. […] In addition to the targeted organ, both asiaticoside and asiatic acid were distributed in some other organs, which could be the sign to expand clinical indications.

[6] = PK study: plasma asiaticoside and asiatic acid after intragastric asiaticoside; assay type: in vivo, SD rats; conditions: asiaticoside 100 mg/kg intragastric; 0.5-24 hours; LC/MS
Description: SD rats were given asiaticoside through intragastric administration at 100 mg/kg. The blood samples were taken 0.5, 1, 2, 4, 6, 9, 12 and 24 hours after administration respectively. Plasma samples were prepared and analyzed for asiaticoside and asiatic acid concentration by LC/MS or GC/MS respectively. […] The plasma concentration of asiatic acid peaked after 4-6 hours after administration.

Beagle dogs [7] = experiment: Chronic toxicity study in Beagle dogs; assay type: in vivo
Description: Beagle dogs were given 18, 72 or 240 mg/kg asiaticoside respectively daily for 9 consecutive months along with a control group.

SD rats [8] = experiment: Embryonic and fetus toxicity and teratogenicity test in SD rats; assay type: in vivo
Description: SD rats were given 120, 380 or 1200 mg/kg of asiaticoside respectively through intragastric administration for 10 consecutive days from day 6-15 of gestation. […] Nor there were any fetus anomalies or obform.

SD rats [9] = experiment: General reproductive toxicity study in rats; assay type: in vivo
Description: SD rats were intragastric administrated with 120, 380 or 1200 mg/kg of asiaticoside respectively. Male and female were given 4 weeks or two weeks of asiaticoside before combining the cages. The male ones were given 5 additional weeks of asiaticoside, while female ones were given the drug till the 15th day of gestation. […] Weight, contour, internal organs and skeleton of fetus were all normal.

[10] = asiaticoside, range over 3 doses (4, 12, 36 mg/kg)

Structure (SMILES): C[C@H]1[C@H](C)CC[C@]2(C(=O)O[C@@H]3O[C@H](CO[C@@H]4O[C@H](CO)[C@@H](O[C@@H]5O[C@H](C)[C@H](O)[C@@H](O)[C@H]5O)[C@H](O)[C@H]4O)[C@@H](O)[C@H](O)[C@H]3O)CC[C@]3(C)C(=CC[C@@H]4[C@@]5(C)C[C@@H](O)[C@H](O)[C@@](C)(CO)[C@@H]5CC[C@]43C)[C@H]12 [Asiaticoside, asiaticoside]
- Highest dose given, no toxicity observed (no acute LD50 could be measured) (Beagle dogs [1]): 10000 mg/kg
- HXP content ([2]; asiaticoside 4 mg/kg, 28 days): 19.63 ± 3.91 mg/g
- Lung weight coefficient ([2]; asiaticoside 4 mg/kg, 28 days): 0.63%
- HXP content ([2]; asiaticoside 12 mg/kg, 28 days): 18.95 ± 7.00 mg/g
- Lung weight coefficient ([2]; asiaticoside 12 mg/kg, 28 days): 0.66%
- HXP content ([2]; asiaticoside 36 mg/kg, 28 days): 18.56 ± 3.98 mg/g
- Lung weight coefficient ([2]; asiaticoside 36 mg/kg, 28 days): 0.64%
- Pathology ([2]; asiaticoside 4, 12, 36 mg/kg): light fibroplasias in alveoli pulmonis diaphragm, light lymphocyte infiltration and compensatory emphysema
- CT scan findings ([2]; asiaticoside 4, 12, 36 mg/kg, not dose dependent): ground glass infiltration in the lung tissue was found, but was significantly less than in the model group
- Overall efficacy ([2]; asiaticoside 4, 12 and 36 mg/kg, 28 days): efficacious in preventing and treating lung fibrosis induced by bleomycin to certain extent
- ET-1 (cytokine content) [2, 10]: 229.62-241.60
- Hyaluronic Acid (serum ECM) [2, 10]: 112.66-312.28
- Laminin (serum ECM) [2, 10]: 43.83-55.75
- PIIIP (collagen content comparison, serum ECM) [2, 10]: 13.87-24.54
- TNF-α (cytokine content) [2, 10]: 5.20-6.49
- TNF-[…] (cytokine content) [2, 10]: 0.067-0.077
- Type IV (collagen content comparison, serum ECM) [2, 10]: 4.33-10.45
- Inhibitory activity on fibroblast proliferation [3]: no apparent inhibitory activity
- HXP content ([4]; asiaticoside 4 mg/kg): 40.88 ± 9.77 mg/g
- Hyaluronic Acid (serum ECM) ([4]; asiaticoside 4 mg/kg): 259.01 ± 64.39
- Laminin (serum ECM) ([4]; asiaticoside 4 mg/kg): 39.21 ± 5.69
- Lung weight coefficient ([4]; asiaticoside 4 mg/kg): 0.42%
- PIIIP (collagen content comparison, serum ECM) ([4]; asiaticoside 4 mg/kg): 21.00 ± 9.50
- Type IV (collagen content comparison, serum ECM) ([4]; asiaticoside 4 mg/kg): 14.74 ± 4.03
- HXP content ([4]; asiaticoside 12 mg/kg): 32.78 ± 4.37 mg/g
- Hyaluronic Acid (serum ECM) ([4]; asiaticoside 12 mg/kg): 246.91 ± 33.2
- Laminin (serum ECM) ([4]; asiaticoside 12 mg/kg): 41.11 ± 9.15
- Lung weight coefficient ([4]; asiaticoside 12 mg/kg): 0.20%
- PIIIP (collagen content comparison, serum ECM) ([4]; asiaticoside 12 mg/kg): 18.84 ± 10.70
- Type IV (collagen content comparison, serum ECM) ([4]; asiaticoside 12 mg/kg): 11.97 ± 4.09
- HXP content ([4]; asiaticoside 36 mg/kg): 31.38 ± 4.75 mg/g
- Hyaluronic Acid (serum ECM) ([4]; asiaticoside 36 mg/kg): 220.64 ± 67.55
- Laminin (serum ECM) ([4]; asiaticoside 36 mg/kg): 48.29 ± 10.67
- Lung weight coefficient ([4]; asiaticoside 36 mg/kg): 0.34%
- PIIIP (collagen content comparison, serum ECM) ([4]; asiaticoside 36 mg/kg): 14.27 ± 10.40
- Type IV (collagen content comparison, serum ECM) ([4]; asiaticoside 36 mg/kg): 10.04 ± 5.69
- CT scan findings ([4]; high dose asiaticoside group): a few fibrotic streaks
- CT scan findings ([4]; low dose asiaticoside group): mild ground glass infiltration and atelectasis in the right lower lung
- CT scan findings ([4]; median dose asiaticoside group): mild ground glass infiltration and fibrotic streaks in the right lung
- Overall efficacy ([4]; pulmonary fibrosis induced by radiation): efficacious in treating pulmonary fibrosis induced by radiation to certain extent
- Main excretion route [5]: feces, bile and urine
- Tissue accumulation [5]: no apparent tissue accumulation
- Plasma concentration of asiaticoside [6]: only trace quantity
- Nontoxic dose as multiple of proposed clinical dosage in human (Beagle dogs [7]; 240 mg/kg/d): 40 ×
- Nontoxic dose (Beagle dogs [7]; 9-month chronic toxicity study, 18, 72 or 240 mg/kg daily): 240 mg/kg/day
- Toxicity observations (behavior, activity, weight, mental state, excrement and urine) (Beagle dogs [7]; 18, 72 or 240 mg/kg daily for 9 consecutive months): no apparent toxicity
- Dose without embryonic and fetus toxicity as multiple of effective dose (6 mg/kg) in mice (SD rats [8]; 1.2 g/kg): 200 ×
- Incidence rate of enlargement of fetus pelvis renalis (SD rats [8]; 1.2 g/kg): increased, yet this was not statistically significant
- Embryonic and fetus toxicity (SD rats [8]; 120, 380 or 1200 mg/kg intragastric, day 6-15 of gestation): no embryonic and fetus toxicity
- Dose with no embryonic and fetus toxicity (SD rats [8]; intragastric, day 6-15 of gestation): 1200 mg/kg
- Clinical observation in male and female animals (SD rats [9]; 1.2 g/kg): bleeding around apertura narium
- Reproductive toxicity (SD rats [9]; 120, 380 or 1200 mg/kg intragastric): no reproductive toxicity
